Source: patent US8399440B2, “Disease modifying anti-arthritic activity of 2-methoxyestradiol” (EntreMed, Inc., priority 2006, dated 2013)

Tested on: Arthrogen Collagen MAb-Induced Arthritis
Test: Arthrogen collagen MAb-induced arthritis (Arthrogen-CIA model of RA)
Format: in vivo, Mouse (Balb/C)
Conditions: Study SMP05-046; either drug alone (2ME2 10 or 100 mg/kg/d PO; MTX 0.1 or 1 mg/kg/d IP)

- pathology in the liver: No pathology
SMILES: CN(Cc1cnc2nc(N)nc(N)c2n1)c1ccc(C(=O)N[C@@H](CCC(=O)O)C(=O)O)cc1 [MTX, methotrexate, reference compound]
